Measured values published in PMC3572379, “Pharmacokinetic and pharmacodynamic effects of comedication of clopidogrel and dabigatran etexilate in healthy male volunteers” (European Journal of Clinical Pharmacology, 2012).
Where two headings read alike, the source gives them in different places.

Columns and labels:
[1] = Plasma pharmacokinetics (HPLC-MS/MS) in open-label drug–drug interaction trial
Description: The treatment phase was divided into three separate parts, each with a different set of subjects. Part 1 (pilot study) was an open-label, multiple-dose (for dabigatran etexilate) and single-dose (for clopidogrel), fixed-sequence study. A single dose of clopidogrel 300 mg was given in addition to dabigatran etexilate 150 mg bid in steady state (Table 1). Part 2 (main study) was a randomized, open-label, multiple-dose, crossover study, with three periods of up to 5 days separated by washout periods of at least 14 days. The test treatment consisted of a clopidogrel 300 mg loading dose on day 1, followed by a 75 mg dose on day 2, then clopidogrel 75 mg qd in combination with dabigatran etexilate 150 mg bid on days 3–5 (Table 1). Part 3 (main study) was an open-label, multiple-dose (for dabigatran etexilate) and single-dose (for clopidogrel), fixed-sequence study. A single dose of clopidogrel 600 mg was given alone or in addition to dabigatran 150 mg bid at steady state (Table 1).
Although there are no reported interactions of food with dabigatran etexilate or clopidogrel, the morning medication was administered with about 240 mL of water following an overnight fast of at least 10 h, and no food was allowed until 4 h after drug administration. According to the twice-daily regimen dabigatran etexilate was similarly administered again 12 h later. Subjects were not allowed to lie down during the 2 h following drug administration, and water was limited for 1 h before and after drug administration. On dosing days a light non-standardized breakfast was given 1 h after morning drug administration. On profile days, no food was given until 4 h after administration. No concomitant therapy was allowed during the study, except for prophylactic thyroid hormone replacement and for symptomatic therapy of adverse events (AEs) in need of treatment.
For PK parameter evaluations, blood samples were taken for the determination of plasma concentrations of free, nonconjugated dabigatran, total dabigatran (after alkaline cleavage of conjugates), and the prodrug dabigatran etexilate, and of clopidogrel and SR26334.
Blood samples were taken before and at specified intervals up to 24 h after the morning clopidogrel dose, and before and up to 24 h after the morning and evening dabigatran etexilate dose. Timings of PK/PD sampling are shown in Supplementary Table 1.
Blood samples (∼2.7 mL for dabigatran and ∼4.0 mL for clopidogrel) were collected into tubes containing potassium ethylenediaminetetraacetic acid for PK analysis. Samples were centrifuged, and the resulting plasma samples were separated and stored at −70°C or below.
Plasma concentrations of free, nonconjugated dabigatran; total dabigatran (sum of free and conjugated dabigatran measured after alkaline cleavage of conjugates); the prodrug dabigatran etexilate; clopidogrel; and SR26334 were determined by validated high-performance liquid chromatography tandem mass spectrometry (HPLC-MS/MS) at AAI Pharma Deutschland (Neu-Ulm, Germany). The calibration curves for free and total dabigatran covered a range from 1.00 to 400 ng/mL plasma in undiluted samples. […] Maximum imprecision and inaccuracy for quality control samples at concentrations of 3, 30, and 320 ng/mL were 6.62 and +5.86%, respectively. For the prodrug, maximum imprecision and inaccuracy were 6.63 and +2.83%, respectively.
Calibration curves for clopidogrel and SR26334 covered concentration ranges of 0.01–10 ng/mL and 0.02–20 μg/mL, respectively, with an inaccuracy generally below 4% and imprecision below 9%. For blood coagulation parameters aPTT, ECT, and TT (PD analyses), ∼3 mL of blood were collected in sodium citrate monovettes at the time points indicated for PK analyses. The blood samples were centrifuged, frozen, and stored at −20°C or below.

[2] = Capillary bleeding time (Surgicutt device); format: in vivo, healthy male subjects
Description: The bleeding time was assessed by single measurements on the forearm using the Surgicutt® Bleeding Time Device (Product Number SUB50, International Technidyne, Edison, NJ, USA). Using a Surgicutt device, a standardized incision of 5 mm length and 1 mm depth was made in the skin. Every 30 s, the blood flow was wicked away cautiously with filter paper, so that the platelet plug remained intact, until the bleeding stopped. Normal bleeding time was under 8 min. For the CBT individual listings including the baseline value, the maximum value of the post-dose measurements, and the corresponding time of the maximum value were provided.

[3] = tested on: ADP-induced platelet aggregation; assay: ADP-induced inhibition of platelet aggregation (light transmission aggregometry in citrated PRP); format: in vivo, healthy male subjects; conditions: DE 150 mg coadministered; after single dose clopidogrel 300 mg
Description: The primary endpoints for PD were area under the effect curve of ADP-induced inhibition of platelet aggregation (IPA) at steady state of clopidogrel over one dosing interval from 0–24 h after dosing (AUECIPA,τ,ss); maximum percentage change compared with baseline in ADP-induced platelet aggregation at steady state of clopidogrel (Emax,IPA,ss); AUEC from 0 to 24 h (AUECIPA,0–24) after the loading dose of clopidogrel 600 mg; and the maximum percentage change compared with baseline in ADP-induced platelet aggregation from 0 to 24 h (Emax,IPA,0–24) after the loading dose of clopidogrel 600 mg.
The following PD parameters were also evaluated: • For clopidogrel, ADP-induced IPA was determined at predefined time points. • Capillary bleeding times were assessed (part 2 and part 3 of the study) before clopidogrel administration, 2, 4, and 12 h after clopidogrel administration, and following administration of dabigatran etexilate alone.
For platelet aggregation testing, ∼9 mL of blood was collected into a 10 mL monovette containing citrate to yield a final concentration of 10.6 mM. Platelet-rich plasma (PRP) was prepared by centrifugation and removed from the red-cell sediment. Approximately 0.5 mL platelet-poor plasma (PPP) was prepared from PRP by further centrifugation. Inhibition of platelet aggregation was performed by light transmission aggregometry in citrated PRP, using an 8-channel platelet aggregation profiler (PAP 8) aggregometer (möLab, Germany). The PRP (0% light transmission) and PPP (100% light transmission) served as reference. After baseline adjustment, ADP in a final concentration of 20 μM was added and aggregation recorded for 6 min. Maximum aggregation (%) within the first 6 min after addition of ADP was determined.

[4] = tested on: blood coagulation parameters (aPTT, ECT, TT); assay: Blood coagulation parameters aPTT, ECT and TT (anti-factor IIa); format: in vivo, healthy male subjects
Description: The secondary endpoints included other PK parameters and the effects of clopidogrel on the PD of dabigatran assessed by ECT, aPTT, TT (including maximum effect ratio, ERmax) as well as the CBT.
Calibration curves for clopidogrel and SR26334 covered concentration ranges of 0.01–10 ng/mL and 0.02–20 μg/mL, respectively, with an inaccuracy generally below 4% and imprecision below 9%. For blood coagulation parameters aPTT, ECT, and TT (PD analyses), ∼3 mL of blood were collected in sodium citrate monovettes at the time points indicated for PK analyses. The blood samples were centrifuged, frozen, and stored at −20°C or below. The aPTT, ECT, and TT parameters were analyzed on an MC10PLUS coagulometer using validated methods by BiochemA, Riegel, Germany. aPTT was measured using a kit from Roche Diagnostics (Mannheim, Germany) according to manufacturer’s instructions, and the ECT assay utilized ecarin from Pentapharm (Basel, Switzerland). Thrombin inhibition (TT), anti-factor IIa, was measured by the Hemoclot Thrombin Inhibitors Assay® (Hemoclot® TT #CK002K, HYPHEN BioMed, Neuville-sur-Oise, France) according to the manufacturer’s instructions. The Hemoclot kit was used for the quantitative measurement of direct thrombin inhibitors in plasma, with a clotting method based on the inhibition of a constant and defined concentration of thrombin.
AUEC and ERmax of aPTT, ECT, and TT as well as CBT, and safety and tolerability were assessed descriptively as secondary parameters.

P-gp = conditions: cited from earlier work
[5] = Safety and tolerability assessment; format: in vivo, healthy male subjects; conditions: given alone or in combination with clopidogrel
[6] = cited from earlier work
[7] = cited from earlier work; remark: listed apart in the source
[8] = part 2, clopidogrel 75 mg qd + DE 150 mg bid vs clopidogrel 75 mg qd
[9] = part 2, reference: clopidogrel 75 mg qd alone, n=23
[10] = part 2, test: clopidogrel 75 mg qd + DE 150 mg bid, n=21, clopidogrel metabolite
[11] = part 3, DE 150 mg bid + clopidogrel 600 mg vs clopidogrel 600 mg

In the case of `O=C(O)[C@H](c1ccccc1Cl)N1CCc2sccc2C1` [SR26334], the “AUC0–24” value ([1]; part 1, clopidogrel 300 mg single dose with DE 150 mg bid) is reported as 35,400 pg h/mL, the “AUCτ,ss ratio test/reference, gMean” value [1, 8] is reported as 110% and the “Cmax,ss ratio test/reference, gMean” value [1, 8] is reported as 103%. For the same compound, the “AUCτ,ss, gMean” value [1, 9] was 8008 ng·h/mL, the “Cmax,ss, gMean” value [1, 9] was 2689 ng/mL and the “AUCτ,ss, gMean” value [1, 10] was 8807 ng·h/mL. The “Cmax,ss, gMean” value [1, 10] was 2760 ng/mL, the “AUC0-24 ratio test/reference, gMean” value [1, 11] was 97.8% and the “Cmax ratio test/reference, gMean” value [1, 11] was 85.7%. For the same compound, the “AUC0-24, gMean” value ([1]; part 3, reference: clopidogrel 600 mg alone, n=12) was 84.3 ng·h/mL and the “AUC0-24, gMean” value ([1]; part 3, test: DE 150 mg bid + single dose clopidogrel 600 mg) was 82.5 ng·h/mL.
For `CCCCCCOC(=O)NC(=N)c1ccc(NCc2nc3cc(C(=O)N(CCC(=O)OCC)c4ccccn4)ccc3n2C)cc1` [dabigatran etexilate], the “CBT on coadministration compared with clopidogrel alone” value ([2]; part 3, DE 150 mg bid with clopidogrel 600 mg vs single dose clopidogrel 600 mg alone) was “did not increase”, the “effect of coadministration on maximum ADP-dependent platelet aggregation achieved after clopidogrel” value [3] was “did not alter” and the “increase in gMean AUECτ,ss of aPTT” value ([4]; part 1, DE 150 mg bid steady state with single dose clopidogrel 300 mg vs DE alone) was “about 30%”. The “AUEC τ,ss and ERmax,ss of TT, ECT and aPTT after concomitant administration” value ([4]; part 2, clopidogrel 75 mg qd (300 mg loading dose) + DE 150 mg bid) was “not altered”, the “change in AUECτ,ss of aPTT” value ([4]; part 3, DE 150 mg bid with single dose clopidogrel 600 mg vs DE alone) was “approximately 36.5%” and the “dabigatran-related effect on TT, ECT and aPTT when clopidogrel coadministered” value ([4]; part 3, single dose clopidogrel 600 mg coadministered with DE 150 mg bid) was “slightly increased”. For the same compound, the “substrate for P-gp” value (P-gp) was “is a substrate for P-gp” and the overall safety [5] was “did not seem to cause any safety issues”.
In the case of `[H]/N=C(/N)c1ccc(NCc2nc3cc(C(=O)N(CCC(=O)O)c4ccccn4)ccc3n2C)cc1` [dabigatran], the “glucuronide conjugates as share of total dabigatran in plasma” value [6] is given as “about 20%”, the half-life ([6]; multiple-dose administration) is given as 14 to 17 h and the half-life ([6]; single-dose administration) is given as 8 to 10 h. For the same compound, the “maximum capillary bleeding time (CBT)” value ([2]; part 2) was “did not prolong”, the “increase in bioavailability (AUCτ,ss)” value ([1]; male, human, in vivo) was 32% and the “effect on coagulation parameters (aPTT, ECT, anti-factor IIa) when clopidogrel added” value ([4]; part 1, single dose clopidogrel 300 mg added to steady-state DE 150 mg bid) was “slightly increased”. The “substrate for P-gp” value (P-gp) was “not”.
In the case of `O=C(NC[C@H]1CN(c2ccc(N3CCOCC3=O)cc2)C(=O)O1)c1ccc(Cl)s1` [rivaroxaban], the “bleeding time, overall least square means” value [7] is given as 1.13 times baseline.
In the case of `CCOC(=O)CN[C@@H](C(=O)N1CC[C@H]1C(=O)NCc1ccc(/C(N)=N\O)cc1)C1CCCCC1` [ximelagatran], the “further prolongation of CBT” value ([7]; phase I trial, in combination with acetylsalicylic acid (ASA) compared with ASA alone) is given as “about 40%”.
